According to publication PMC11929074, “An in vitro platform for the enzymatic characterization of the rhomboid protease RHBDL4” (The Journal of Biological Chemistry, 2025):
*1 amine or outer side, *2 acyl side, *3 side chain or, on linkers, in order; H or OH if unused. Where a SMILES comes first, the peptide text is derived from it. [ ]: non-standard residue; d: D form. The star is where a group is joined. Pheol(OBn) = c1ccc(COC[C@H](Cc2ccccc2)N*)cc1; NH(4-phenylbutyl) = c1ccc(CCCCN*)cc1; X1 = C[C@H](N[*:1])C(=O)C(=O)[*:2]

How the values were obtained:
[1] = tested on: RHBDL4-GFP in ER-enriched microsomes of HEK293T cells; assay: TAMRA-FP competition label assay in ER-enriched microsomes; assay type: binding, human; conditions: 100 μM compound, 1 h preincubation at 37 °C, then 500 nM TAMRA-FP 2 h at 37 °C; n = 3
Experimental: Figure 6 RHBDL4 inhibition studies in ER-enriched microsomes ER-enriched microsomes were preincubated with 100 μM of compounds or DMSO vehicle control followed by the addition of 500 nM of TAMRA-FP serine hydrolase probe. RHBDL4-GFP was immunoprecipitated with an α-GFP antibody and loaded on SDS-PAGE. TAMRA-FP labeling was analyzed via Cy3 filter followed by Western blotting using α-GFP antibody, n = 3.
ER-enriched microsomes were obtained by hypotonic swelling and centrifugation from Hek293T cells 24 h after transfection. To this end, cells from a subconfluent 15-cm plate were resuspended in isolation buffer (10 mM Hepes-KOH pH 7.4, 1.5 mM MgCl2, 10 mM KCl, EDTA-free complete protease inhibitor cocktail from Roche). After 10 min incubation at 4 °C, cells were lysed by passing six times through a 27-gauge needle. Cellular debris and nuclei were discarded after centrifugation at 1000g for 5 min at 4 °C. The supernatant was spun at 100,000g for 30 min at 4 °C. The membrane pellet was resuspended in 40 μl RM buffer (50 mM Hepes-KOH pH 7.4, 250 mM sucrose, 50 mM KOAc, 2 mM Mg(OAc)2). […] TAMRA-FP-labeling was analyzed in the wet gel with a green light source (535 nm) and a Cy3 filter by detecting fluorescence emission using ImageQuant 800 Fluor CCD imager (Cytiva) followed by Western blotting using an α-GFP antibody (Roche).

[2] = tested on: WT RHBDL4 (recombinant, purified); assay: TAMRA-FP competition labelling on recombinant RHBDL4; assay type: binding, human; conditions: in-gel Cy3 fluorescence, compared with inactive RHBDL4-S144A control
Excerpt: (§1) B, schematic representation of the peptidyl-α-ketoamide scaffold with peptide sequence P5-P1 at the nonprime side and hydrophobic substituent (R) at the prime side. C, schematic representation of the peptidyl-α-ketoamide inhibitor, compound 1a/1b. D, representative inhibition curve derived from measuring rates of RHBDL4 proteolysis of the fluorescent substrate IQ6 with increasing concentrations of compound 1a. E, same as (D), except inhibition curve was derived from using increasing concentrations of compound 1b. […] Reactions were quenched with 1 keLaemmli buffer and loaded on 12% SDS-PAGE gel. Post-transfer membranes were visualized using a fluorescence Cy3 filter and by Western blotting using an α-His antibody. For (A, D, and E), all inhibitors were pre-incubated with RHBDL4 for 1 h and allowed to react with the IQ6 substrate for 2 h.
(§2) B, representative inhibition curve derived from measuring rates of RHBDL4 proteolysis of the fluorescent substrate IQ6 with increasing concentrations of compound 3. C, same as (B), except inhibition curve was derived from using increasing concentrations of compound 4. […] Reactions were quenched with 1 RLaemmli buffer and loaded on 12% SDS-PAGE gel. Post-transfer membranes were visualized using a fluorescence Cy3 filter and by Western blotting using an α-His antibody. E, saturation curve of RHBDL4 using fluorescent substrate, KSp207. For (B and C), all inhibitors were pre-incubated with RHBDL4 for 1 h and allowed to react with the IQ6 substrate for 2 h. […] I assigned them to the substrate KSp207, which is named on the x-axis and in the inset table.

recombinant human RHBDL4 = target: T1, recombinant human RHBDL4 (Homo sapiens, UniProt Q8TEB9); assay: Inhibition of RHBDL4 proteolysis of IQ6 (FRET-based in vitro assay); assay type: biochemical; conditions: IQ6 substrate; inhibitor pre-incubated with RHBDL4 for 1 h, then reacted with IQ6 for 2 h; triplicate, average ± S.E.M.
T1 construct: The entire RHBDL4 and RHBDL4-S144A cDNAs were subcloned into the pcDNA3.1 vector; 6xHis (C, cleaved yes); made in house; host or cells: Freestyle 293-F cells (transient transfection, pcDNA3.1-HisA)
T1 sequence (Q8TEB9 1-315): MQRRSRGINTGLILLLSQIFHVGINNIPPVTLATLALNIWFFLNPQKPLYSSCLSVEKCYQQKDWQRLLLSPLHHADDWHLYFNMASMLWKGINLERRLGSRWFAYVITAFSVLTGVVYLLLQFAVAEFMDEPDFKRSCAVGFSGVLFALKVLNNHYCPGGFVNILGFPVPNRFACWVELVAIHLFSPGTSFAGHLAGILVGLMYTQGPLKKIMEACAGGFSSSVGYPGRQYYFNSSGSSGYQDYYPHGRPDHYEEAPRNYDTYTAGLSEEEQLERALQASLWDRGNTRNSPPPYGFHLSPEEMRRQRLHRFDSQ
Excerpt: as §1, §2
The enzymatic assay was performed as previously described (Arutyunova et al., 2014, ([26])). […] The FRET-based cleavage assay was conducted in a fluorescence multiwell plate reader (SynergyMx, BioTek). Upon excitation at 320 nm, the emission intensity at 400 nm was recorded for 2 h at minimal intervals under shaking conditions and plotted using the GraphPad PRISM software. The initial velocities were defined as the slopes of the curve of the generated product as a function of time. The plots of the generated product against the corresponding substrate concentration were fitted with the Michaelis–Menten equation. Catalytic parameters were extrapolated using GraphPad PRISM. […] The samples were desalted using C18 tips (Rainin), eluted in 80% acetonitrile, and dried down in a vacuum centrifuge prior to mass spectrometry analysis.

| Compound | TAMRA-FP labeling of RHBDL4-GFP [1] | competition with TAMRA-FP probe (fluorescent signal) [2] | IC50 (recombinant human RHBDL4) [nM] |
| --- | --- | --- | --- |
| CSCC[C@H](NC(=O)[C@H](CCC(N)=O)NC(C)=O)C(=O)N[C@@H](CCC(=O)O)C(=O)N[C@@H](CO)C(=O)N[C@@H](C)C(=O)C(=O)N[C@H](COCc1ccccc1)Cc1ccccc1 [compound 4] (Ac-QMES[X1]-{Pheol(OBn)}) | reduced | reduction in overall fluorescent signal | – |
| CSCC[C@H](NC(=O)[C@H](CCC(N)=O)NC(C)=O)C(=O)N[C@@H](CCC(=O)O)C(=O)N[C@@H](CO)C(=O)N[C@@H](C)C(=O)C(=O)NCCCCc1ccccc1 [compound 3] (Ac-QMES[X1]-{NH(4-phenylbutyl)}) | reduced | reduction in overall fluorescent signal | 54 ± 13 |
